In patent publication US6610504B1, “Methods of determining SAM-dependent methyltransferase activity using a mutant SAH hydrolase” (General Atomics, priority 2000, dated 2003):

Legend:
[1] = target: T1, KLBP (Mus musculus, UniProt Q05816); conditions: displacement of 1,8-ANS from KLBP; cited from earlier work
T1 sequence (Q05816 1-135): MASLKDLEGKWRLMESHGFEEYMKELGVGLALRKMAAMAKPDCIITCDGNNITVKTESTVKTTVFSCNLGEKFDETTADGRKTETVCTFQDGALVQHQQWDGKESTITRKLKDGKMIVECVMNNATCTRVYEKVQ

[2] = target: T2, keratinocyte lipid-binding protein (KLBP) (Mus musculus, UniProt Q05816); conditions: read-out: apparent dissociation constant (Kd); probe binding to KLBP; cited from earlier work
T2 sequence (Q05816 1-135): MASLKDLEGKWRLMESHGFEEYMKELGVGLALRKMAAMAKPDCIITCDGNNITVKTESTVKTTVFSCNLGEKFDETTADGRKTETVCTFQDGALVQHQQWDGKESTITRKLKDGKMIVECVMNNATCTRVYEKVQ

[3] = target: T3, cellular retinol-binding protein (CRBP) (Homo sapiens, UniProt P09455); conditions: read-out: apparent dissociation constant; probe binding to CRBP; cited from earlier work
T3 sequence (P09455 1-135): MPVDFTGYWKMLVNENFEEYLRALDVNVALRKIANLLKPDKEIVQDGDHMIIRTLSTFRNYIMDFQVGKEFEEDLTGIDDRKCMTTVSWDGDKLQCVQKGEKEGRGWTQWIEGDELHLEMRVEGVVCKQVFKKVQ

[4] = target: cellular retinoic acid-binding protein I (CRABPI) (Homo sapiens, UniProt P29762); conditions: read-out: apparent dissociation constant; probe binding to CRABPI; cited from earlier work
[5] = target: T4, ALBP (Mus musculus, UniProt P04117); conditions: displacement of 1,8-ANS from ALBP, cited from earlier work; for Ki: read-out: apparent inhibitor constant (Ki)
T4 sequence (P04117 1-132): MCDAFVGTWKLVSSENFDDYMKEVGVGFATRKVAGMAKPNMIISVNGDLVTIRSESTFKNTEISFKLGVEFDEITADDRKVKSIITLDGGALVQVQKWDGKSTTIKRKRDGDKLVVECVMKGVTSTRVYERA

[6] = target: T5, CRBP (Homo sapiens, UniProt P09455); conditions: displacement of 1,8-ANS from CRBP; cited from earlier work
T5 sequence (P09455 1-135): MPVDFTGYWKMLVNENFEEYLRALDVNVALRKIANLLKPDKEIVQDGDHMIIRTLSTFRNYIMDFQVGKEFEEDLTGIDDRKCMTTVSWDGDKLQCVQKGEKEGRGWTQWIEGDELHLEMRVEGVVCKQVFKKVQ

[7] = target: T6, serum vitamin D binding protein (Homo sapiens, UniProt P02774); conditions: binding to serum vitamin D binding protein, Langmuir isotherm, nonlinear least-squares fit; cited from earlier work
T6 sequence (P02774 17-474): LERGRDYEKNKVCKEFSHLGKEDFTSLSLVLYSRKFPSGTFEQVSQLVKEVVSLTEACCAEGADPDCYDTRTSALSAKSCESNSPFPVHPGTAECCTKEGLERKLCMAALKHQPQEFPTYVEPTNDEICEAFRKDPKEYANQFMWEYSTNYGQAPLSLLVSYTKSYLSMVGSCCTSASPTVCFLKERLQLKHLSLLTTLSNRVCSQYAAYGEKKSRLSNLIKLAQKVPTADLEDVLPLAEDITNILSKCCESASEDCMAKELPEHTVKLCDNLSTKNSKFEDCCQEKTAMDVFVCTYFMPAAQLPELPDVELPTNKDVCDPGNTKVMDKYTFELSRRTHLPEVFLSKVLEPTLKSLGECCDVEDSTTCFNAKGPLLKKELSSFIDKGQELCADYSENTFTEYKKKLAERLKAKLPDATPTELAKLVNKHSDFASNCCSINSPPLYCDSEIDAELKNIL

[8] = target: T7, SAH hydrolase (Homo sapiens, UniProt P23526); assay: SAH hydrolase activity, hydrolytic direction (kinetic constants for SAH); type: biochemical; conditions: substrate SAH
T7 construct: made in house; host or cells: E. coli JM109, vector pKK223-3
Method: The assay of SAH hydrolase activity in the hydrolytic direction was performed as described in Yuan et al., J. Biol. Chem., 271:28008-28016, 1996). The assay measures the hydrolysis of SAH into Ado and Hcy. The reaction product Hcy was derivatized by thiol specific reagent DTNB for colometric determination at 412 nm. The assay for SAH hydrolase in the synthetic direction was measured by the formation of SAH from substrate Ado and Hcy using HPLC (see, Yuan et al., J. Biol. Chem., 268:17030-17037 (1993). One unit of the enzyme activity was defined as the amount of enzyme that can hydrolyze or synthesize 1 μmole of SAH/min/mg.
Mutant SAH hydrolase (e.g., F302S) was specifically fluorescence labels on Cys421, an non-essential cysteine residue which is located on the surface of the protein that is not involved in substrate binding and catalysis. Cys421 residue is readily accessible by thiol reactive molecules, and can be modified without effect the binding affinity of the enzyme. Thiol specific reactive probes such as 7-diethylamino-3(4′-maleimidylphenyl)-4-methylcoumarin (CPM) can specifically label protein thiols. Mutant SAH hydrolase (F302S) (0.5 mg/ml) in 50 mM phosphate buffer, pH 7.2, was incubated with 2 mM of adenine to protect other thiols in the substrate binding site, followed by addition of CPM to final concentration of 50 μM. The reaction mixture was incubated at room temperature for 30 min. followed by gel filtration on a size exclusion column (Sephacryl S-300, […]×60 cm) to remove adenine and excess CPM. The CPM-labeled F302S mutant SAH hydrolase (2 mg/ml) was kept in 50 mM phosphate buffer containing 20% glycerol at −20° C. The comparison of Km (SAH) and Kcat (SAH) for wild type and mutant F302S is shown below in Table 10.

T7 sequence (P23526 whole entry): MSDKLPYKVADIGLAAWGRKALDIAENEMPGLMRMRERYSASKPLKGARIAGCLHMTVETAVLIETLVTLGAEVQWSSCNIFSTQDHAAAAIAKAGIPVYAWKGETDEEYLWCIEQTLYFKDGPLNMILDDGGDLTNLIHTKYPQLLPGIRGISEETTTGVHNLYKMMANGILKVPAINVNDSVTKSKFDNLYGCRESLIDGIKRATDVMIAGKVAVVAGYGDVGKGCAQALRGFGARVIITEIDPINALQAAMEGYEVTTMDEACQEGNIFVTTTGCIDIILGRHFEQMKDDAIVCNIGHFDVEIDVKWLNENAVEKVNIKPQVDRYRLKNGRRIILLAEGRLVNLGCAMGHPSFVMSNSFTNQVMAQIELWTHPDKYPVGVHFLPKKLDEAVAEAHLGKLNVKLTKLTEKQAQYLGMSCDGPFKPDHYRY
cellular retinoic acid-binding protein I (CRABPI), sequence (P29762 whole entry, species assumed): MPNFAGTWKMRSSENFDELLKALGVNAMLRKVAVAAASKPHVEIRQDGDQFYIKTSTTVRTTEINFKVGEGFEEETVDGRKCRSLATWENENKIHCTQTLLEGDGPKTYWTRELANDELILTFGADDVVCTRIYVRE

CCCCC/C=C\C/C=C\C/C=C\C/C=C\CCCC(=O)O [arachidonic acid]
Ki [1]: 0.4 µM

O=S(=O)(O)c1cccc2cccc(Nc3ccccc3)c12 [1,8-ANS, 1-anilinonapthalene 8-sulfonic acid]
Kd [2]: 0.53 µM
Kd [3]: 7.7 µM
Kd [4]: 25 µM

CC1=C(/C=C/C(C)=C/C=C/C(C)=C/CO)C(C)(C)CCC1 [all-trans-retinol]
displacement of the fluorophore from ALBP [5]: did not displace
bound by KLBP [1]: neither octanoic acid nor all-trans-retinol were bound

CCCCCCCC/C=C\CCCCCCCC(=O)O [Oleic acid]
Ki [5]: 0.134 µM
Ki [1]: 0.42 µM

CCCCCCCC(=O)O [octanoic acid]
displacement of the fluorophore from ALBP [5]: did not displace
bound by KLBP [1]: neither octanoic acid nor all-trans-retinol were bound

CC1=C(/C=C/C(C)=C/C=C/C(C)=C/C=O)C(C)(C)CCC1 [all-trans-retinal]
Ki [6]: 1.7 µM

CC1=C(/C=C/C(C)=C/C=C/C(C)=C/C(=O)O)C(C)(C)CCC1 [all-trans-retinoic acid]
Ki [6]: 5.3 µM
Ki [5]: 0.87 µM
Ki [1]: 3.6 µM

vitamin D
Kd [7]: 91.7 µM

25-hydroxyvitamin D
Kd [7]: 5.59 µM

B1: wild type: Human placental SAH hydrolase, wild type, expressed in E. coli JM109 (protein, UniProt P23526 2-432, looked up)
Adenosylhomocysteinase: SDKLPYKVADIGLAAWGRKALDIAENEMPGLMRMRERYSASKPLKGARIAGCLHMTVETAVLIETLVTLGAEVQWSSCNIFSTQDHAAAAIAKAGIPVYAWKGETDEEYLWCIEQTLYFKDGPLNMILDDGGDLTNLIHTKYPQLLPGIRGISEETTTGVHNLYKMMANGILKVPAINVNDSVTKSKFDNLYGCRESLIDGIKRATDVMIAGKVAVVAGYGDVGKGCAQALRGFGARVIITEIDPINALQAAMEGYEVTTMDEACQEGNIFVTTTGCIDIILGRHFEQMKDDAIVCNIGHFDVEIDVKWLNENAVEKVNIKPQVDRYRLKNGRRIILLAEGRLVNLGCAMGHPSFVMSNSFTNQVMAQIELWTHPDKYPVGVHFLPKKLDEAVAEAHLGKLNVKLTKLTEKQAQYLGMSCDGPFKPDHYRY
Kcat (SAH) [8]: 3.8 S^−1
Km [8]: 7.9 µM

B2: F302S: Mutant human SAH hydrolase, Phe 302 to Ser (protein, UniProt P23526 2-432, looked up, variant F302S)
Adenosylhomocysteinase: SDKLPYKVADIGLAAWGRKALDIAENEMPGLMRMRERYSASKPLKGARIAGCLHMTVETAVLIETLVTLGAEVQWSSCNIFSTQDHAAAAIAKAGIPVYAWKGETDEEYLWCIEQTLYFKDGPLNMILDDGGDLTNLIHTKYPQLLPGIRGISEETTTGVHNLYKMMANGILKVPAINVNDSVTKSKFDNLYGCRESLIDGIKRATDVMIAGKVAVVAGYGDVGKGCAQALRGFGARVIITEIDPINALQAAMEGYEVTTMDEACQEGNIFVTTTGCIDIILGRHFEQMKDDAIVCNIGHSDVEIDVKWLNENAVEKVNIKPQVDRYRLKNGRRIILLAEGRLVNLGCAMGHPSFVMSNSFTNQVMAQIELWTHPDKYPVGVHFLPKKLDEAVAEAHLGKLNVKLTKLTEKQAQYLGMSCDGPFKPDHYRY
Kcat (SAH) [8]: 0.1 S^−1
Km [8]: 1 µM
